Data from ChEMBL document CHEMBL3992533, “α-Ketothioamide Derivatives: A Promising Tool to Interrogate Phosphoglycerate Dehydrogenase (PHGDH)” (J Med Chem, 2017).
Activity calls are given as the source filed them. No cut-off for these calls is given here.

target: T1, D-3-phosphoglycerate dehydrogenase (Homo sapiens) (UniProt O43175); assay: Inhibition of recombinant human C-terminal His-tagged PHGDH (1 to 533 residues) expressed in Escherichia coli assessed as reduction in NADH formation at 100 uM using 3-phosphoglycerate as substrate preincubated measured for 7 mins in presence of NAD+ by spectrophotometric method relative to control; conditions: not given
T1 sequence (whole entry): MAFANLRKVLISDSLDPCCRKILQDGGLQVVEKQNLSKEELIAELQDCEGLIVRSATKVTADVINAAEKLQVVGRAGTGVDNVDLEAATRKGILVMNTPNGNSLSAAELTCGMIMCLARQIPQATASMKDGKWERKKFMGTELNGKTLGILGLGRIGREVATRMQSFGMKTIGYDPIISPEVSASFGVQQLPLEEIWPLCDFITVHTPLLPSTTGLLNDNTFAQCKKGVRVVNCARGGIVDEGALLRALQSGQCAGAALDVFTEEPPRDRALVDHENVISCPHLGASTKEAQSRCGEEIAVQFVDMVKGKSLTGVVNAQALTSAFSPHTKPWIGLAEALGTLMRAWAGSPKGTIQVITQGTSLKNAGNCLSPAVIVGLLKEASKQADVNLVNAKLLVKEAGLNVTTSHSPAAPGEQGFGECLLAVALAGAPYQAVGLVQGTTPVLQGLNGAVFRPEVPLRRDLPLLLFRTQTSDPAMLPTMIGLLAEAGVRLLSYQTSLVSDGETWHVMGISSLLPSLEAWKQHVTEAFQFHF

Structure (SMILES) | inhibition [%]
O=C1C=CC(=O)c2ccccc21 | 95
S=C(c1ccc(Cl)c(Cl)c1)N1CCOCC1 [(3,4-DICHLOROPHENYL)(MORPHOLINO)METHANETHIONE] | 96
CCCCCN1C(=O)NC(c2ccccc2)(c2ccccc2)C1=O | 25
Nc1nc2c(s1)CCCC2 | 46
Cc1cc(C)nc(NC(=O)c2ccc([N+](=O)[O-])cc2)n1 | 13
O=C1C=CC(=O)N1c1ccccc1Cl | 78
c1ccc(C2CNCCO2)cc1 (configuration not stated) | 61
S=C(Nc1ccccc1)NC1CCCCC1 | 28
O=C(N1CCN(c2ccccc2)CC1)n1nnc2ccccc21 | 37
O=C(NC(c1ccccc1)c1ccccc1)c1ccc([N+](=O)[O-])cc1 | 54
COc1ccc(S(=O)(=O)N2CCNCC2)cc1 | 35
FC(F)(F)c1cc(NC(=S)N2CCN(Cc3ccccc3)CC2)cc(C(F)(F)F)c1 | 80
S=C(NC1CCCCC1)Sc1ccccc1 | 51
O=C1C=CC(=O)C=C1 | 100
O=C(Nc1ccccc1[N+](=O)[O-])c1ccc(Cl)cc1 | 59

target: T1, D-3-phosphoglycerate dehydrogenase (Homo sapiens); conditions: 160 uM

Structure (SMILES) | inhibition
O=C(C(=S)N1CCOCC1)c1ccccc1 | Active

target: T1, D-3-phosphoglycerate dehydrogenase (Homo sapiens); assay: Ratio of IC50 for inhibition of PHGDH in human SiHa cells assessed as reduction in cell viability in serine repleted medium to IC50 for inhibition of PHGDH in human SiHa cells assessed as reduction in cell viability in serine depleted medium; assay type: cell-based; conditions: not given

Structure (SMILES) | Ratio IC50
O=C(C(=S)N1CCOCC1)c1ccc(Br)cc1 | 2.6
O=C(C(=S)N1CCOCC1)c1ccc(Cl)cc1 | 3.2
O=C(C(=S)N1CCOCC1)c1ccc(I)cc1 | 2.8
O=C(C(=S)N1CCOCC1)c1ccc([N+](=O)[O-])cc1 | 3
O=C(C(=S)N1CCOCC1)c1ccc(F)cc1 | > 2.3
O=C(C(=S)N1CCOCC1)c1ccccc1 | 9.1

target: T2, D-3-phosphoglycerate dehydrogenase (Homo sapiens, UniProt O43175); assay: Inhibition of recombinant human C-terminal His-tagged PHGDH (1 to 533 residues) expressed in Escherichia coli assessed as reduction in NADH formation using 3-phosphoglycerate as substrate in presence of NAD+ by resorufin fluorescence based PSAT1/diaphorase/PSPH coupled enzyme assay; conditions: not given
T2 sequence (O43175 whole entry): T1 sequence (whole entry)

Structure (SMILES) | IC50 [µM]
O=C(C(=S)N1CCOCC1)c1cccc([N+](=O)[O-])c1 | 88.1
O=C(C(=S)N1CCOCC1)c1ccc(Br)cc1 | 131
O=C(C(=S)N1CCOCC1)c1ccccc1I | > 200
O=C(C(=S)N1CCOCC1)c1cccc(Cl)c1 | > 200
O=C(C(=S)N1CCOCC1)c1ccccc1F | > 200
O=C(C(=S)N1CCOCC1)c1ccc(Cl)cc1 | 8.7
O=C(C(=S)N1CCOCC1)c1ccccc1Cl | > 200
O=C(C(=S)N1CCOCC1)c1ccc(I)cc1 | 178
O=C(C(=S)N1CCOCC1)c1cccc(F)c1 | > 200
O=C(C(=S)N1CCOCC1)c1ccc([N+](=O)[O-])cc1 | 35.1
O=C(C(=S)N1CCOCC1)c1ccc(-c2ccccc2)cc1 | > 200
O=C(C(=S)N1CCOCC1)c1ccccc1[N+](=O)[O-] | > 200
O=C(C(=S)N1CCOCC1)c1ccc(F)cc1 | 68.9
O=C(C(=S)N1CCOCC1)c1ccccc1 | 30.9
O=C(C(=S)N1CCOCC1)c1cccc(Br)c1 | > 200
O=C(C(=S)N1CCOCC1)c1ccccc1Br | 161
O=C(C(=S)N1CCOCC1)c1cccc(I)c1 | > 200
O=C(Nc1ccccc1[N+](=O)[O-])c1ccc(Cl)cc1 | 75.2

system: MDA-MB-231; assay: Cytotoxicity against PHGDH deficient human MDA-MB-231 cells assessed as reduction in cell viability after 5 days by presto blue assay; assay type: functional, cell-based; conditions: MDA-MB-231, 120 h

Structure (SMILES) | IC50 [µM]
S=C(c1ccc(Cl)c(Cl)c1)N1CCOCC1 [(3,4-DICHLOROPHENYL)(MORPHOLINO)METHANETHIONE] | > 100
O=C(C(=S)N1CCOCC1)c1ccc(Br)cc1 | > 100
O=C(C(=S)N1CCOCC1)c1cccc(Cl)c1 | > 100
O=C(C(=S)N1CCOCC1)c1ccc(Cl)cc1 | > 100
O=C(C(=S)N1CCOCC1)c1ccccc1Cl | > 100
O=C(C(=S)N1CCOCC1)c1ccc(I)cc1 | > 100
O=C(C(=S)N1CCOCC1)c1ccc([N+](=O)[O-])cc1 | > 100
O=C(C(=S)N1CCOCC1)c1ccc(F)cc1 | > 100
O=C(C(=S)N1CCOCC1)c1ccccc1 | > 100
O=C(Nc1ccccc1[N+](=O)[O-])c1ccc(Cl)cc1 | > 100

target: T2, D-3-phosphoglycerate dehydrogenase; assay: (§1) Non-competitive inhibition of recombinant human C-terminal His-tagged PHGDH (1 to 533 residues) expressed in Escherichia coli assessed as reduction in NADH formation preincubated for 30 mins followed by varying levels of 3-phosphoglycerate substrate addition in presence of constant NAD+ concentration by resorufin fluorescence based PSAT1/diaphorase/PSPH coupled enzyme assay; conditions: not given

Structure (SMILES) | Ki [µM]
O=C(C(=S)N1CCOCC1)c1ccccc1 | 40

system: HL-60; assay: Cytotoxicity against PHGDH knockout human HL60 cells assessed as reduction in cell viability after 5 days by presto blue assay; assay type: functional, cell-based; conditions: HL-60, 120 h

Structure (SMILES) | IC50 [µM]
S=C(c1ccc(Cl)c(Cl)c1)N1CCOCC1 [(3,4-DICHLOROPHENYL)(MORPHOLINO)METHANETHIONE] | > 100
O=C(C(=S)N1CCOCC1)c1ccc(Br)cc1 | > 100
O=C(C(=S)N1CCOCC1)c1cccc(Cl)c1 | > 100
O=C(C(=S)N1CCOCC1)c1ccc(Cl)cc1 | > 100
O=C(C(=S)N1CCOCC1)c1ccccc1Cl | > 100
O=C(C(=S)N1CCOCC1)c1ccc(I)cc1 | > 100
O=C(C(=S)N1CCOCC1)c1ccc([N+](=O)[O-])cc1 | > 100
O=C(C(=S)N1CCOCC1)c1ccc(F)cc1 | > 100
O=C(C(=S)N1CCOCC1)c1ccccc1 | > 100
O=C(Nc1ccccc1[N+](=O)[O-])c1ccc(Cl)cc1 | > 100

target: T2, D-3-phosphoglycerate dehydrogenase; assay: as §1, with “constant concentration” for “varying levels”, “varying levels of” for “constant”, “NAD+” for “NAD+ concentration”; conditions: not given

Structure (SMILES) | Ki [µM]
O=C(C(=S)N1CCOCC1)c1ccccc1 | 27

target: T1, D-3-phosphoglycerate dehydrogenase (Homo sapiens); assay: Ratio of IC50 for inhibition of PHGDH in human HL60 cells assessed as reduction in cell viability in serine repleted medium to IC50 for inhibition of PHGDH in human HL60 cells assessed as reduction in cell viability in serine depleted medium; assay type: cell-based; conditions: not given

Structure (SMILES) | Ratio IC50
O=C(C(=S)N1CCOCC1)c1ccc(Br)cc1 | 2.2
O=C(C(=S)N1CCOCC1)c1ccc(Cl)cc1 | 3.3
O=C(C(=S)N1CCOCC1)c1ccc(I)cc1 | 2.8
O=C(C(=S)N1CCOCC1)c1ccc([N+](=O)[O-])cc1 | 2.9
O=C(C(=S)N1CCOCC1)c1ccc(F)cc1 | 1.5
